Data: patent US10543189B2, “2-acetylnaphtho[2,3-b]furan -4,9-dione for use on treating cancer” (Boston Biomedical, Inc., priority 2013, dated 2020)

Experiment: Phase 1 extension study of higher strength capsule (DP2A): adverse events
Assay type: in vivo
From the text: However, with the higher strength capsules, we observed worsening gastrointestinal adverse effects including nausea, vomiting, and diarrhea in patients.
Additional studies were run using an oral formulation of the Compound of the Invention, specifically a higher strength capsule formulation (DP2A). As described herein, the Compound of the Invention blocks cancer stem cell (CSC) self-renewal and induces cell death in CSC as well as non-stem cancer cells by inhibiting Stat3, β-catenin, and Nanog pathways, and has shown potent anti-tumor and anti-metastatic activities pre-clinically. […] The studies described herein were designed as a phase 1 extension study to evaluate a formulation designed for pivotal trials to determine pharmacokinetics (PK) in patients with advanced cancer.
On Day 1, patients received a single 500 mg dose of an oral administration formulation of the Compound of the Invention (DP1). On Day 4 and Day 8, a higher strength capsule designed for pivotal trials (DP2A) was given with fasting then fed conditions. DP2A was then administered daily until disease progression or unacceptable toxicity. Endpoints were safety, PK and preliminary anticancer activity.

[1] = q 4 h dosing (N = 17), AE possibly related to BBI608

With `CC(=O)c1cc2c(o1)C(=O)c1ccccc1C2=O` [Compound 1, 2-acetylnaphtho[2,3-b]furan-4,9-dione] the AE summary (Patient 0053, at 500 mg bid q4h (gastrointestinal issues)) was “No significant gastrointestinal”, the AE summary (Patient 0054, at 500 mg bid q4h (gastrointestinal issues)) was “No significant gastrointestinal” and the AE summary (Patient 0061, fatigue, cramping, diarrhea, and nausea starting at 500 mg bid q4h and persisting at 375 mg/250 mg/250 mg q4h) was “Intolerable grade 2 fatigue,”. The “Abdominal cramps/pain, Grade 1 or 2, # Subjects” value [1] was 13, the “Abdominal cramps/pain, Grade 1 or 2, %” value [1] was 76.5% and the “Abdominal cramps/pain, Grade 3, # Subjects” value [1] was 1. The “Abdominal cramps/pain, Grade 3, %” value [1] was 5.9%, the “Anorexia, Grade 1 or 2, # Subjects” value [1] was 10 and the “Anorexia, Grade 1 or 2, %” value [1] was 58.8%. The “Anorexia, Grade 3, # Subjects” value [1] was 3, the “Anorexia, Grade 3, %” value [1] was 17.6% and the “Bloated abdomen, Grade 1 or 2, # Subjects” value [1] was 4. The “Bloated abdomen, Grade 1 or 2, %” value [1] was 23.5%, the “Bloated abdomen, Grade 3, # Subjects” value [1] was 0 and the “Bloated abdomen, Grade 3, %” value [1] was 0.0%. The “Dehydration, Grade 1 or 2, # Subjects” value [1] was 1, the “Dehydration, Grade 1 or 2, %” value [1] was 5.9% and the “Dehydration, Grade 3, # Subjects” value [1] was 0. The “Dehydration, Grade 3, %” value [1] was 0.0%, the “Depression, Grade 1 or 2, # Subjects” value [1] was 0 and the “Depression, Grade 1 or 2, %” value [1] was 0.0%. The “Depression, Grade 3, # Subjects” value [1] was 0, the “Depression, Grade 3, %” value [1] was 0.0% and the “Diarrhea, Grade 1 or 2, # Subjects” value [1] was 14. For the same compound, the “Diarrhea, Grade 1 or 2, %” value [1] was 82.4%, the “Diarrhea, Grade 3, # Subjects” value [1] was 4 and the “Diarrhea, Grade 3, %” value [1] was 23.5%. The “Dysgusia, Grade 1 or 2, # Subjects” value [1] was 1, the “Dysgusia, Grade 1 or 2, %” value [1] was 5.9% and the “Dysgusia, Grade 3, # Subjects” value [1] was 0. For the same compound, the “Dysgusia, Grade 3, %” value [1] was 0.0%, the “Fatigue/weakness, Grade 1 or 2, # Subjects” value [1] was 10 and the “Fatigue/weakness, Grade 1 or 2, %” value [1] was 58.8%. The “Fatigue/weakness, Grade 3, # Subjects” value [1] was 3, the “Fatigue/weakness, Grade 3, %” value [1] was 17.6% and the “Flatulence, Grade 1 or 2, # Subjects” value [1] was 2. The “Flatulence, Grade 1 or 2, %” value [1] was 11.8%, the “Flatulence, Grade 3, # Subjects” value [1] was 0 and the “Flatulence, Grade 3, %” value [1] was 0.0%. For the same compound, the “Nausea, Grade 1 or 2, # Subjects” value [1] was 8, the “Nausea, Grade 1 or 2, %” value [1] was 47.1% and the “Nausea, Grade 3, # Subjects” value [1] was 1. The “Nausea, Grade 3, %” value [1] was 5.9%, the “Rectal/Anal Burning, Grade 1 or 2, # Subjects” value [1] was 3 and the “Rectal/Anal Burning, Grade 1 or 2, %” value [1] was 17.6%. The “Rectal/Anal Burning, Grade 3, # Subjects” value [1] was 0, the “Rectal/Anal Burning, Grade 3, %” value [1] was 0.0% and the “Reflux (also heartburn), Grade 1 or 2, # Subjects” value [1] was 1. The “Reflux (also heartburn), Grade 1 or 2, %” value [1] was 5.9%, the “Reflux (also heartburn), Grade 3, # Subjects” value [1] was 0 and the “Reflux (also heartburn), Grade 3, %” value [1] was 0.0%. The “Urine Color Change, Grade 1 or 2, # Subjects” value [1] was 2, the “Urine Color Change, Grade 1 or 2, %” value [1] was 11.8% and the “Urine Color Change, Grade 3, # Subjects” value [1] was 0. For the same compound, the “Urine Color Change, Grade 3, %” value [1] was 0.0%, the “Vomiting, Grade 1 or 2, # Subjects” value [1] was 7 and the “Vomiting, Grade 1 or 2, %” value [1] was 41.2%. For the same compound, the “Vomiting, Grade 3, # Subjects” value [1] was 0, the “Vomiting, Grade 3, %” value [1] was 0.0% and the “Weight loss, Grade 1 or 2, # Subjects” value [1] was 8. The “Weight loss, Grade 1 or 2, %” value [1] was 47.1%, the “Weight loss, Grade 3, # Subjects” value [1] was 0 and the “Weight loss, Grade 3, %” value [1] was 0.0%. The “Xerostomia, Grade 1 or 2, # Subjects” value [1] was 4, the “Xerostomia, Grade 1 or 2, %” value [1] was 23.5% and the “Xerostomia, Grade 3, # Subjects” value [1] was 0. For the same compound, the “Xerostomia, Grade 3, %” value [1] was 0.0%, the “hypophosphatemia, Grade 1 or 2, # Subjects” value [1] was 1 and the “hypophosphatemia, Grade 1 or 2, %” value [1] was 5.9%. The “hypophosphatemia, Grade 3, # Subjects” value [1] was 1.
